Reference: patent US12077503B2, “Substituted cyclic amides and their use as herbicides” (FMC CORPORATION, priority 2015, dated 2024)

Columns and labels:
Format in all cases: in vivo
Kochia (Kochia scoparia) [1] = assay: Test A preemergence; conditions: Bassia scoparia, pre-emergence, 240 h, Preemergence; for pest or weed control at 31 g/ha: 31 g ai/ha, 0 to 100 scale where 0 is no effect and 100 is complete control, read-out: Kochia plant response rating; for pest or weed control at 125 g/ha: 125 g ai/ha, 0 to 100 scale (0 no effect, 100 complete control), read-out: Plant response rating, Kochia
Procedure, shortened: (§1)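 Greenhouse, ~10 d after spray; visual injury vs untreated controls, 0 = no effect, 100 = complete control. Preemergence: directed soil spray over planted seeds. Postemergence: plants 2–10 cm, 1–2 leaf stage. Loam/sand blend. Compound in non-phytotoxic solvent with surfactant.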

[2] = system: barnyardgrass (Echinochloa crus-galli); assay: Test A preemergence; conditions: Echinochloa crus-galli, pre-emergence, 240 h, Preemergence; for pest or weed control at 31 g/ha: 31 g ai/ha, 0 to 100 scale where 0 is no effect and 100 is complete control, read-out: Barnyardgrass plant response rating; for pest or weed control at 125 g/ha: 125 g ai/ha, 0 to 100 scale (0 no effect, 100 complete control), read-out: Plant response rating, Barnyardgrass
Procedure, shortened: as §1

[3] = system: giant foxtail (Setaria faberii); assay: Test A preemergence; conditions: Setaria faberi, pre-emergence, 240 h, Preemergence; for pest or weed control at 31 g/ha: 31 g ai/ha, 0 to 100 scale where 0 is no effect and 100 is complete control, read-out: Foxtail, Giant plant response rating; for pest or weed control at 125 g/ha: 125 g ai/ha, 0 to 100 scale (0 no effect, 100 complete control), read-out: Plant response rating, Foxtail, Giant
Procedure, shortened: as §1

[4] = system: pigweed (Amaranthus retroflexus); assay: Test A preemergence; conditions: Amaranthus retroflexus, pre-emergence, 240 h, Preemergence; for pest or weed control at 31 g/ha: 31 g ai/ha, 0 to 100 scale where 0 is no effect and 100 is complete control, read-out: Pigweed plant response rating; for pest or weed control at 125 g/ha: 125 g ai/ha, 0 to 100 scale (0 no effect, 100 complete control), read-out: Plant response rating, Pigweed
[5] = system: ragweed (common ragweed, Ambrosia elatior); assay: Test A preemergence; conditions: Ambrosia artemisiifolia, pre-emergence, 240 h, Preemergence; for pest or weed control at 31 g/ha: 31 g ai/ha, 0 to 100 scale where 0 is no effect and 100 is complete control, read-out: Ragweed plant response rating; for pest or weed control at 125 g/ha: 125 g ai/ha, 0 to 100 scale (0 no effect, 100 complete control), read-out: Plant response rating, Ragweed
Procedure, shortened: as §1

[6] = system: ryegrass, Italian (Italian ryegrass, Lolium multiflorum); assay: Test A preemergence; conditions: Lolium multiflorum, pre-emergence, 240 h, Preemergence; for pest or weed control at 31 g/ha: 31 g ai/ha, 0 to 100 scale where 0 is no effect and 100 is complete control, read-out: Ryegrass, Italian plant response rating; for pest or weed control at 125 g/ha: 125 g ai/ha, 0 to 100 scale (0 no effect, 100 complete control), read-out: Plant response rating, Ryegrass, Italian
Procedure, shortened: as §1

Kochia (Kochia scoparia) [7] = assay: Test A postemergence; conditions: Bassia scoparia, post-emergence, 240 h, Postemergence, read-out: Kochia plant response rating (0 to 100 scale); for pest or weed control at 125 g/ha: 125 g ai/ha, visual rating about 10 d after treatment; for pest or weed control at 31 g/ha: 31 g ai/ha, 0 is no effect, 100 is complete control
Procedure, shortened: as §1

[8] = system: barnyardgrass (Echinochloa crus-galli); assay: Test A postemergence; conditions: Echinochloa crus-galli, post-emergence, 240 h, Postemergence; for pest or weed control at 125 g/ha: 125 g ai/ha, visual rating about 10 d after treatment, read-out: Barnyardgrass plant response rating (0 to 100 scale, 0 no effect, 100 complete control); for pest or weed control at 31 g/ha: 31 g ai/ha, 0 is no effect, 100 is complete control, read-out: Barnyardgrass plant response rating (0 to 100 scale)
Procedure, shortened: as §1

[9] = system: blackgrass (Alopecurus myosuroides); assay: Test A postemergence; conditions: Alopecurus myosuroides, post-emergence, 240 h, Postemergence, read-out: Blackgrass plant response rating (0 to 100 scale); for pest or weed control at 125 g/ha: 125 g ai/ha, visual rating about 10 d after treatment; for pest or weed control at 31 g/ha: 31 g ai/ha, 0 is no effect, 100 is complete control
Procedure, shortened: as §1

corn (Zea mays) = assay: Test A postemergence; conditions: Zea mays, post-emergence, 240 h, Postemergence, read-out: Corn plant response rating (0 to 100 scale); for plant injury at 125 g/ha: 125 g ai/ha, visual rating about 10 d after treatment; for plant injury at 31 g/ha: 31 g ai/ha, 0 is no effect, 100 is complete control
Procedure, shortened: as §1

[10] = system: giant foxtail (Setaria faberii); assay: Test A postemergence; conditions: Setaria faberi, post-emergence, 240 h, Postemergence, read-out: Foxtail, Giant plant response rating (0 to 100 scale); for pest or weed control at 125 g/ha: 125 g ai/ha, visual rating about 10 d after treatment; for pest or weed control at 31 g/ha: 31 g ai/ha, 0 is no effect, 100 is complete control
Procedure, shortened: as §1

[11] = system: pigweed (Amaranthus retroflexus); assay: Test A postemergence; conditions: Amaranthus retroflexus, post-emergence, 240 h, Postemergence, read-out: Pigweed plant response rating (0 to 100 scale); for pest or weed control at 125 g/ha: 125 g ai/ha, visual rating about 10 d after treatment; for pest or weed control at 31 g/ha: 31 g ai/ha, 0 is no effect, 100 is complete control
Procedure, shortened: as §1

[12] = system: ragweed (common ragweed, Ambrosia elatior); assay: Test A postemergence; conditions: Ambrosia artemisiifolia, post-emergence, 240 h, Postemergence, read-out: Ragweed plant response rating (0 to 100 scale); for pest or weed control at 125 g/ha: 125 g ai/ha, visual rating about 10 d after treatment; for pest or weed control at 31 g/ha: 31 g ai/ha, 0 is no effect, 100 is complete control
Procedure, shortened: as §1

[13] = system: ryegrass, Italian (Italian ryegrass, Lolium multiflorum); assay: Test A postemergence; conditions: Lolium multiflorum, post-emergence, 240 h, Postemergence, read-out: Ryegrass, Italian plant response rating (0 to 100 scale); for pest or weed control at 125 g/ha: 125 g ai/ha, visual rating about 10 d after treatment; for pest or weed control at 31 g/ha: 31 g ai/ha, 0 is no effect, 100 is complete control
Procedure, shortened: as §1

[14] = system: wheat (Triticum aestivum); assay: Test A postemergence; conditions: Triticum aestivum, post-emergence, 240 h, Postemergence, read-out: Wheat plant response rating (0 to 100 scale); for plant injury at 125 g/ha: 125 g ai/ha, visual rating about 10 d after treatment; for plant injury at 31 g/ha: 31 g ai/ha, 0 is no effect, 100 is complete control
Procedure, shortened: as §1

[15] = system: barnyardgrass (Echinochloa crus-galli); assay: Test B flooded paddy test; conditions: Echinochloa crus-galli, 360 h, Flood, 250 g ai/ha; visually evaluated after 13 to 15 d; read-out: Plant response rating, Barnyardgrass (0 to 100 scale where 0 is no effect and 100 is complete control)
Procedure, shortened: (§2)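 2-leaf plants; pots flooded 3 cm over soil; cpd added to paddy water; depth held; greenhouse 13–15 d; visual rating vs controls, 0 = no effect, 100 = complete control.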

[16] = system: ducksalad (Heteranthera limosa); assay: Test B flooded paddy test; conditions: Heteranthera limosa, 360 h, Flood, 250 g ai/ha; visually evaluated after 13 to 15 d; read-out: Plant response rating, Ducksalad (0 to 100 scale where 0 is no effect and 100 is complete control)
Procedure, shortened: as §2

rice (Oryra sativa) = assay: Test B flooded paddy test; conditions: Oryza sativa, 360 h, Flood, 250 g ai/ha; visually evaluated after 13 to 15 d; read-out: Plant response rating, Rice (0 to 100 scale where 0 is no effect and 100 is complete control)
Procedure, shortened: as §2

[17] = system: sedge, umbrella (small-flower umbrella sedge, Cyperus difformis); assay: Test B flooded paddy test; conditions: Cyperus difformis, 360 h, Flood, 250 g ai/ha; visually evaluated after 13 to 15 d; read-out: Plant response rating, Sedge, Umbrella (0 to 100 scale where 0 is no effect and 100 is complete control)
Procedure, shortened: as §2

COc1ccc([C@H]2CNC(=O)[C@@H]2C(=O)Nc2cccc(F)c2F)cc1 [Compound 1341]
pest or weed control at 31 g/ha (Kochia (Kochia scoparia) [1]): 30%
pest or weed control at 125 g/ha (Kochia (Kochia scoparia) [1]): 0%
pest or weed control at 31 g/ha [2]: 0%
pest or weed control at 125 g/ha [2]: 60%
pest or weed control at 31 g/ha [3]: 10%
pest or weed control at 125 g/ha [3]: 70%
pest or weed control at 31 g/ha [4]: 0%
pest or weed control at 125 g/ha [4]: 0%
pest or weed control at 31 g/ha [5]: 20%
pest or weed control at 125 g/ha [5]: 0%
pest or weed control at 31 g/ha [6]: 0%
pest or weed control at 125 g/ha [6]: 0%
pest or weed control at 125 g/ha (Kochia (Kochia scoparia) [7]): 0%
pest or weed control at 31 g/ha (Kochia (Kochia scoparia) [7]): 0%
pest or weed control at 125 g/ha [8]: 90%
pest or weed control at 31 g/ha [8]: 40%
pest or weed control at 125 g/ha [9]: 0%
pest or weed control at 31 g/ha [9]: 0%
plant injury at 125 g/ha (corn (Zea mays)): 0%
plant injury at 31 g/ha (corn (Zea mays)): 0%
pest or weed control at 125 g/ha [10]: 0%
pest or weed control at 31 g/ha [10]: 0%
pest or weed control at 125 g/ha [11]: 0%
pest or weed control at 31 g/ha [11]: 0%
pest or weed control at 125 g/ha [12]: 0%
pest or weed control at 31 g/ha [12]: 0%
pest or weed control at 125 g/ha [13]: 0%
pest or weed control at 31 g/ha [13]: 0%
plant injury at 125 g/ha [14]: 0%
plant injury at 31 g/ha [14]: 0%
pest or weed control at 250 g/ha [15]: 30%
pest or weed control at 250 g/ha [16]: 90%
pest or weed control at 250 g/ha (rice (Oryra sativa)): 0%
pest or weed control at 250 g/ha [17]: 0%

COc1ccc([C@H]2CN(C)C(=O)[C@@H]2C(=O)Nc2cccc(F)c2F)cc1 [Compound 1343]
pest or weed control at 31 g/ha (Kochia (Kochia scoparia) [1]): 0%
pest or weed control at 125 g/ha (Kochia (Kochia scoparia) [1]): 40%
pest or weed control at 31 g/ha [2]: 90%
pest or weed control at 125 g/ha [2]: 90%
pest or weed control at 31 g/ha [3]: 100%
pest or weed control at 125 g/ha [3]: 100%
pest or weed control at 31 g/ha [4]: 0%
pest or weed control at 125 g/ha [4]: 30%
pest or weed control at 31 g/ha [5]: 90%
pest or weed control at 125 g/ha [5]: 0%
pest or weed control at 31 g/ha [6]: 0%
pest or weed control at 125 g/ha [6]: 30%
pest or weed control at 125 g/ha (Kochia (Kochia scoparia) [7]): 50%
pest or weed control at 31 g/ha (Kochia (Kochia scoparia) [7]): 0%
pest or weed control at 125 g/ha [8]: 90%
pest or weed control at 31 g/ha [8]: 60%
pest or weed control at 125 g/ha [9]: 0%
pest or weed control at 31 g/ha [9]: 0%
plant injury at 125 g/ha (corn (Zea mays)): 0%
plant injury at 31 g/ha (corn (Zea mays)): 0%
pest or weed control at 125 g/ha [10]: 90%
pest or weed control at 31 g/ha [10]: 60%
pest or weed control at 125 g/ha [11]: 0%
pest or weed control at 31 g/ha [11]: 0%
pest or weed control at 125 g/ha [12]: 30%
pest or weed control at 31 g/ha [12]: 0%
pest or weed control at 125 g/ha [13]: 20%
pest or weed control at 31 g/ha [13]: 0%
plant injury at 125 g/ha [14]: 30%
plant injury at 31 g/ha [14]: 0%
pest or weed control at 250 g/ha [15]: 95%
pest or weed control at 250 g/ha [16]: 98%
pest or weed control at 250 g/ha (rice (Oryra sativa)): 0%
pest or weed control at 250 g/ha [17]: 0%
